# Laboratory results taken from patent US9669078B2, “PD-L1 based immunotherapy” (Herlev Hospital, priority 2011, dated 2017).
# “Also recorded” adds a separate entry of the source. Like-named read-outs stand apart in the source and are kept apart here.
# B1: IFN-γ: cytokine added (100 U/ml, 2 days) to melanoma cell lines (protein, UniProt P01579 24-161, looked up)
# Interferon gamma: QDPYVKEAENLKKYFNAGHSDVADNGTLFLGILKNWKEESDRKIMQSQIVSFYFKLFKNFKDDQSIQKSVETIKEDMNVKFFNSNKKKRDDFEKLTNYSVTDLNVQRKAIHELIQVMAELSPAAKTGKRKRSQMLFRG
# Tests used:
# PBMC [1] = test: IFN-γ ELISPOT assay; format: cell-based, human; settings: for specific T-cell responses, IFN-γ ELISPOT: PBMC from HLA-A2+ cancer patients (breast cancer, melanoma, renal cell carcinoma) stimulated once with peptide in vitro
# Excerpt: The ELISPOT assay was used to quantify peptide specific IFN-γ releasing effector cells as described previously (Andersen et al., 2001, Cancer Res. 61:869-872). In some experiments PBMC were stimulated once in vitro with peptide prior to analysis as described (McCutcheon et al., 1997, J Immunol Methods 210:149-166) to extend the sensitivity of the assay. Briefly, nitrocellulose bottomed 96-well plates (MultiScreen MAIP N45; Millipore) were coated overnight with IFN-γ capture mAb (Mabtech). The wells were washed, blocked by X-vivo medium and the effector cells (PBMC collected and when indicated stimulated as described above) were added in duplicates at different cell concentrations, with or without 10 μM peptide. The plates were incubated overnight. The following day, medium was discarded and the wells were washed prior to addition of the relevant biotinylated secondary Ab (Mabtech). The plates were incubated at room temperature (RT) for 2 hours, washed, and Avidin-enzyme conjugate (AP-Avidin; Calbiochem/Invitrogen Life Technologies) was added to each well. Plates were incubated at RT for 1 hour and the enzyme substrate NBT/BCIP (Invitrogen Life Technologies) was added to each well and incubated at RT for 5-10 min. Upon the emergence of dark purple spots, the reaction was terminated by washing with tap water. The spots were counted using the ImmunoSpot Series 2.0 Analyzer (CTL Analyzers).
# (§1) In the present study the ELISPOT was performed according to the guidelines provided by CIP (http://cimt.eu/cimt/files/dl/cip_guidelines.pdf). In some experiments PBMC were stimulated once in vitro with peptide prior to analysis as described to extend the sensitivity of the assay. Briefly, nitrocellulose bottomed 96-well plates (MultiScreen MAIP N45; Millipore) were coated overnight with the relevant antibodies. The wells were washed, blocked by X-vivo medium and the effector cells were added if possible in triplicates otherwise in duplicates at different cell concentrations, with or without peptide. The plates were incubated overnight. The following day, medium was discarded and the wells were washed prior to addition of the relevant biotinylated secondary Ab (Mabtech), followed by the Avidin-enzyme conjugate (AP-Avidin; Calbiochem/Invitrogen Life Technologies) and finally the enzyme substrate NBT/BCIP (Invitrogen Life Technologies). The spots were counted using the ImmunoSpot Series 2.0 Analyzer (CTL Analyzers). Definition of an ELISPOT response was based on the guidelines and recommendations provided by CIP by an empirical or a statistical approach; the former implies setting a threshold to represent a biological response. […] The non-parametric Distribution free resampling (DFR) test gives a way of formally comparing antigen stimulated wells with negative control wells. As a minimum the ELISPOT assay must be performed at least in triplets. Furthermore, the non-parametric unpaired Mann-Whitney test was used to compare PD-L101-specific responders between cancer patients and healthy donors.
# [2] = system: HLA-A2+ EBV transformed B-cell line (KIG-BCL); format: cell-based; settings: 51Cr-release
# Procedure: (§2) Conventional ^51Cr-release assays for CTL-mediated cytotoxicity were carried out as described in Andersen et al., J Immunol 1999. Target cells were T2-cells, HLA-A2^+ EBV transformed B-cell line (KIG-BCL), autologous matured DC (mDC), HLA-A2^+ melanoma cell lines (MM1312.07 and MM.909.06) with or without IFN-γ (100 U/ml) addition for 2 days. T2-cells and KIG-BCL were pulsed with PD-L1 recombinant protein (Sin θ Biological Inc.) for 3 hr. at 37° C. prior addition of chromium. Lysis of T2-cells was blocked using anti HLA-A2 FITC conjugated antibody (2 ug/100 ul, BD Biosciences).
# T2-cells = test: 51Cr-release cytotoxicity assay, T2-cells; format: cell-based
# Procedure: Conventional ^51Cr-release assays for CTL-mediated cytotoxicity were carried out as described elsewhere (Andersen et al., 1999). Target cells were T2 with and without PDL101 (FIG. 3a) and the HLA-A2+ breast cancer cell line the breast cancer cell line MDA-MB-231 (FIG. 3b) (available at the American Type Culture Collection (ATCC)).
# as §2
# [3] = system: PD-L101-specific T-cell bulk culture; test: CD107a staining of T-cell bulk culture after peptide addition; format: cell-based, human; settings: peptide added directly to T-cell bulk culture, FACS
# Excerpt: Subsequently, cells were stained with tetramer and surface markers and analysed FACSCANTO II (BD Biosciences, San Jose Calif., USA).
# [4] = system: PD-L101-specific, CD8 T-cells among PBMC; test: HLA-A2/PD-L101 tetramer staining by flow cytometry; format: cell-based, human; settings: for PD-L1-tetramer positive cells: after three in vitro re-stimulations
# Procedure: Two PD-L101-specific T cell culture were established. PBMC from a breast cancer patient (CM.21) and from a melanoma (MM.05) patient were stimulated with irradiated PD-L101-loaded autologous DC. The following day IL-7 and IL-12 (PeproTech, London, UK) were added. […] The day after peptide stimulation IL-2 (PeproTech, London, UK) was added.
# For multimer/tetramer staining, tetramers coupled with PE and APC were prepared using MHC-peptide exchange technology. […] Dead cell marker 7-AAD-PerCP (BD Bioscience) added prior to FACS analysis.
# PBMC [5] = test: Granzyme B (GrB) ELISPOT; format: cell-based, human; settings: PBMC from three melanoma patients (MM.03, MM.53, MM.135)
# Procedure: as §1, with “As a minimum the ELISPOT assay must be performed at least in triplets. Furthermore, the non-parametric unpaired Mann-Whitney test was used to compare PD-L101-specific responders between cancer patients and healthy donors.” left out
# HLA-A2 = test: HLA peptide exchange technology and ELISA; format: binding, human; settings: compared with high affinity epitopes HIV-1 pol476-484 and CMV pp65 pos495-503
# Excerpt: To evaluate the affinity of the HLA-peptide complex a UV exchange method was used in combination with a sandwich ELISA as previously described (19).
# PBMC [6] = test: TNF-α ELISPOT; format: cell-based, human; settings: PBMC from IFN-γ-responding patients, triplicates
# Procedure: In addition to determining the presence of specific T-cells using IFNγ as a marker, TNFα was also used as a marker. Thus, an ELISPOT assay was performed essentially as described above with the PDL101 peptide including a stimulation once in vitro with said peptide, except that TNFα antibodies were used in place of IFNγ antibodies. FIG. 2B show the results.
# In the present study the ELISPOT was performed according to the guidelines provided by CIP (http://cimt.eu/cimt/files/dl/cip_guidelines.pdf). In some experiments PBMC were stimulated once in vitro with peptide prior to analysis as described to extend the sensitivity of the assay. Briefly, nitrocellulose bottomed 96-well plates (MultiScreen MAIP N45; Millipore) were coated overnight with the relevant antibodies. The wells were washed, blocked by X-vivo medium and the effector cells were added if possible in triplicates otherwise in duplicates at different cell concentrations, with or without peptide. The plates were incubated overnight. The following day, medium was discarded and the wells were washed prior to addition of the relevant biotinylated secondary Ab (Mabtech), followed by the Avidin-enzyme conjugate (AP-Avidin; Calbiochem/Invitrogen Life Technologies) and finally the enzyme substrate NBT/BCIP (Invitrogen Life Technologies). The spots were counted using the ImmunoSpot Series 2.0 Analyzer (CTL Analyzers). […]
# [7] = system: autologous matured DC (mDC); test: 51Cr-release cytotoxicity assay, autologous matured DC; format: cell-based, human; settings: mDC transfected by electroporation
# Procedure: DC were generated from PBMC by adherence on culture dishes at 37° C. for 1-2 hr. in RPMI-1640. Adherent monocytes were cultured in RPMI-1640 supplemented with 10% fetal calf serum in the presence of IL-4 (250 U/ml) and GM-CSF (1000 U/ml) for 6 days. DC were matured by addition of […] (1000 U/ml), IL-6 (1000 U/ml) TNF-α (1000 U/ml) and PGE2 (1 ug/ml).
# as §2
# (§3) Stealth siRNA duplex for targeted silencing of PD-L1 and recommended Stealth siRNA negative control duplex for medium GC content were obtained from Invitrogen (Invitrogen, Paisley, UK). The Stealth PD-L1 siRNA duplex consisted of the sense sequence 5′-[…]3′ (SEQ ID NO: 21) and the anti-sense sequence 5′-[…]-3′ (SEQ ID NO:22). For PD-L1 silencing experiments, mDC were transfected with PD-L1 siRNA using electroporation parameters.
# [8] = system: PD-L1 surface expression on mDC; test: Flow cytometry of PD-L1 surface expression on mDC; format: cell-based, human; settings: 24 hr after transfection; 0.05, 0.10 and 0.25 nmol
# Procedure: as §3
# (§4) Flow cytometry analysis was performed on a FACSCANTO II (BD Biosciences, San Jose Calif., USA) to determine PD-L1 surface expression on mDC before and after siRNA targeted silencing, T2-cells, KIG-BCL and HLA-A2^+ melanoma cell lines (MM1312.07 and MM.909.06) with or without IFN-γ treatment. Cells were washed in PBS/1% BSA and subsequently stained either with FITC- or PE-Cy5-conjugated anti-PD-L1 monoclonal antibody for 30 min on ice in PBS/1% BSA. Nonreactive isotype-matched antibody (BD Biosciences) was used as control. Fluorescence analyses were performed using FACSDiva software (BD Biosciences) and FlowJo software (Tree Star, Ashland Oreg., USA).
# [9] = system: PD-L1 surface expression on MM.909.06; test: Flow cytometry of PD-L1 surface expression on MM.909.06; format: cell-based; settings: FACS
# Procedure: as §4
# [10] = system: HLA-A2+ melanoma cell line MM.909.06; test: 51Cr-release cytotoxicity assay, MM.909.06; format: cell-based; settings: IFN-γ (100 U/ml) for 2 days
# Procedure: as §2
# [11] = system: HLA-A2+ melanoma cell line MM1312.07; test: 51Cr-release cytotoxicity assay, MM1312.07; format: cell-based; settings: IFN-γ (100 U/ml) for 2 days
# Procedure: as §2
# [12] = system: PD-L1 surface expression on MM1312.07; test: Flow cytometry of PD-L1 surface expression on MM1312.07; format: cell-based; settings: FACS
# Procedure: as §4
molecule,measurement,setting,value
VILGAILLCL (PD-L1 peptide) [PDL114],"specific T-cell responses, IFN-γ ELISPOT",PBMC [1],responses were detected
"ILKEPVHGV [HIV-1 pol476-484, reference compound]",lysis of pulsed KIG-BCL by PD-L101-specific CTL,[2],not killed
same,lysis of peptide- or protein-pulsed T2-cells by PD-L101-specific T-cell culture,T2-cells,no cytotoxic was observed
CLGVALTFI (PD-L1 peptide) [PDL111],"specific T-cell responses, IFN-γ ELISPOT",PBMC [1],responses were detected
"PD-L1 protein: PD-L1 recombinant protein (Sin θ Biological Inc.), full length, used to pulse T2-cells and KIG-BCL",lysis of pulsed KIG-BCL by PD-L101-specific CTL,[2],not recognized
same,lysis of peptide- or protein-pulsed T2-cells by PD-L101-specific T-cell culture,T2-cells,recognized and killed
LLNAFTVTV (PD-L1 peptide) [PD-L101],"specific T-cell responses, IFN-γ ELISPOT",PBMC [1],Frequent and strong responses were detected
same,"specific T-cell responses, IFN-γ ELISPOT",PBMC [1]; listed as PDL101,responses were detected
same,"PD-L101-specific cells, IFN-γ ELISPOT directly ex vivo","PBMC [1]; PBMC of responding patients, without peptide stimulation in vitro",significant responses; also recorded: readily detectable ex vivo in selected patients
same,lysis of pulsed KIG-BCL by PD-L101-specific CTL,[2],recognized
same,"HLA-A2/PD-L101-tetramer+, CD107a+ cells",[3],distinct populations
same,"PD-L1-reactive T cells by HLA-A2/PD-L101 tetramer, directly ex vivo","[4]; PBMC from two PD-L101-responding patients (CM.21, MM.05)",detectable ex vivo in both patients
same,PD-L1-tetramer positive cells,[4]; T-cells from a breast cancer patient,13.52%
same,PD-L1-tetramer positive cells,[4]; T-cells from a malignant melanoma patient,0.17%
same,frequency of PD-L1-specific T-cells by tetramer after one in vitro peptide stimulation,"[4]; both patients (CM.21, MM.05)",markedly increased the frequency
same,GrB ELISPOT responses (DFR test),PBMC [5],could be detected in the three patients; also recorded: significant responses against PD-L101 in two of the patients
same,"frequency of PD-L101-specific, GrB releasing cells",PBMC [5],"100-300 PD-L101-specific, GrB releasing cells per 5×10^5 PBMC"
same,binding to HLA-A2,HLA-A2,comparable to the high-affinity control epitope
same,lysis of peptide- or protein-pulsed T2-cells by PD-L101-specific T-cell culture,T2-cells,killed; also recorded: lysed T2-cells pulsed with PD-L101 efficiently
same,lysis of peptide- or protein-pulsed T2-cells by PD-L101-specific T-cell culture,T2-cells; listed as PDL01,efficiently presented
same,"TNF-α release by PD-L101-specific cells, TNF-α ELISPOT",PBMC [6],released TNF-α
VILGAILLCLGVALTFIFRLRKG (PD-L1 peptide) [PDLong2],lysis of pulsed KIG-BCL by PD-L101-specific CTL,[2],not killed
"5′-CCUACUGGCAUUUGCUGAACGCAUU3′ (antisense AAUGCGUUCAGCAAAUGCCAGUAGG; listed as RNA, chemistry not given here) [PD-L1 siRNA]",killing of siRNA-transfected mDC by PD-L1-specific CTL cultures,[7],rescued the DC from being killed
same,PD-L1 protein surface expression on mDC after siRNA transfection,[8],reduced the level of PD-L1 protein expression
FMTYWHLLNAFTVTVPKDL (PD-L1 peptide) [PDLong1],lysis of pulsed KIG-BCL by PD-L101-specific CTL,[2],recognized
same,lysis of peptide- or protein-pulsed T2-cells by PD-L101-specific T-cell culture,T2-cells,"take up, process and present"
B1,"effect of IFN-γ treatment on PD-L1 expression, MM.909.06",[9],increased the expression of PD-L1 in both cell lines
same,effect of IFN-γ treatment on killing of MM.909.06,[10],increased the killing of both melanoma cell lines
same,effect of IFN-γ treatment on killing of MM1312.07,[11],increased the killing of both melanoma cell lines
same,"effect of IFN-γ treatment on PD-L1 expression, MM1312.07",[12],increased the expression of PD-L1 in both cell lines
